The values that follow are results of earlier work, collected in patent US6812249B2, “Process for preparing a 3-hydroxy-3-methylbutyrate amino acid salt and method of use” (priority 2003, dated 2004).

For the series the following is noted: experienced weight trained athletes; oral supplementation for 6 weeks or 28 days.

Regarding `CC(C)(O)CC(=O)[O-].CC(C)(O)CC(=O)[O-].[Ca+2]` [HMB calcium salt], the “alteration in muscle size, fat mass, or strength variables” value is given as “no alteration in muscle size, fat mass, or strength variables”.
